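Test compounds were applied to cells in 96-well plates for 48 hours at 5 doses. At the TGI there is no net growth.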
Columns and labels:
Assay in all cases: NCI tumour cell line growth inhibition, 48 h
LXFL 529 NSCLC = tested on: LXFL 529 NSCLC
KM12 colon = tested on: KM12 colon
HCT-15 colon = tested on: HCT-15 colon
DMS 114 small cell lung = tested on: DMS 114 small cell lung
M19-MEL melanoma = tested on: M19-MEL melanoma
786-0 renal = tested on: 786-0 renal
SK-MEL-5 melanoma = tested on: SK-MEL-5 melanoma
KM20L2 colon = tested on: KM20L2 colon
CCRF-CEM leukemia = tested on: CCRF-CEM leukemia
SF-539 CNS = tested on: SF-539 CNS
UO-31 renal = tested on: UO-31 renal
COLO 205 colon = tested on: COLO 205 colon
DLD-1 colon = tested on: DLD-1 colon
CAKI-1 renal = tested on: CAKI-1 renal
UACC-62 melanoma = tested on: UACC-62 melanoma
NCI-H23 lung = tested on: NCI-H23 lung
OVCAR-5 ovarian = tested on: OVCAR-5 ovarian
RXF-631 renal = tested on: RXF-631 renal
TK-10 renal = tested on: TK-10 renal
IGROV1 ovarian = tested on: IGROV1 ovarian
NCI-H522 lung = tested on: NCI-H522 lung
K-562 leukemia = tested on: K-562 leukemia
SN12C renal = tested on: SN12C renal
SF-295 CNS = tested on: SF-295 CNS
HT29 colon = tested on: HT29 colon
HCC-2998 colon = tested on: HCC-2998 colon
OVCAR-4 ovarian = tested on: OVCAR-4 ovarian
SR leukemia = tested on: SR leukemia
SK-OV-3 ovarian = tested on: SK-OV-3 ovarian
SNB-19 CNS = tested on: SNB-19 CNS
XF 498 CNS = tested on: XF 498 CNS
A549 NSCLC = tested on: A549 NSCLC
MALME-3M melanoma = tested on: MALME-3M melanoma
EKVX NSCLC = tested on: EKVX NSCLC
SK-MEL-28 melanoma = tested on: SK-MEL-28 melanoma
MOLT-4 leukemia = tested on: MOLT-4 leukemia
U251 CNS = tested on: U251 CNS
OVCAR-8 ovarian = tested on: OVCAR-8 ovarian
SK-MEL-2 melanoma = tested on: SK-MEL-2 melanoma
SNB-78 CNS = tested on: SNB-78 CNS
M14 melanoma = tested on: M14 melanoma
OVCAR-3 ovarian = tested on: OVCAR-3 ovarian
SF-268 CNS = tested on: SF-268 CNS
RXF 393 renal = tested on: RXF 393 renal
HOP-92 NSCLC = tested on: HOP-92 NSCLC
SW-620 colon = tested on: SW-620 colon
ACHN renal = tested on: ACHN renal
A498 renal = tested on: A498 renal
SNB-75 CNS = tested on: SNB-75 CNS
HL-60(TB) leukemia = tested on: HL-60(TB) leukemia
HOP-62 NSCLC = tested on: HOP-62 NSCLC
HCT-116 colon = tested on: HCT-116 colon
NCI-H226 lung = tested on: NCI-H226 lung
DMS 273 small cell lung = tested on: DMS 273 small cell lung
SN12K1 renal = tested on: SN12K1 renal
MCF7 breast = tested on: MCF7 breast
HOP-18 NSCLC = tested on: HOP-18 NSCLC
NCI-H460 lung = tested on: NCI-H460 lung
P388 leukemia = tested on: P388 leukemia
NCI/ADR-RES ovarian = tested on: NCI/ADR-RES ovarian
P388/ADR leukemia = tested on: P388/ADR leukemia
LOX IMVI melanoma = tested on: LOX IMVI melanoma
UACC-257 melanoma = tested on: UACC-257 melanoma
RPMI-8226 leukemia = tested on: RPMI-8226 leukemia

For `O=C1OC(c2ccccc2)=N/C1=C/C=C/c1ccco1`, the TGI (LXFL 529 NSCLC) was over 100 µM, the TGI (KM12 colon) was over 100 µM and the TGI (HCT-15 colon) was over 100 µM. The TGI (DMS 114 small cell lung) was over 100 µM, the TGI (M19-MEL melanoma) was over 100 µM and the TGI (786-0 renal) was over 100 µM. For the same molecule, the TGI (SK-MEL-5 melanoma) was over 100 µM, the TGI (KM20L2 colon) was over 100 µM and the TGI (CCRF-CEM leukemia) was over 100 µM. It also gave a TGI (SF-539 CNS) of over 100 µM, a TGI (UO-31 renal) of over 100 µM and a TGI (COLO 205 colon) of over 100 µM. For the same molecule, the TGI (DLD-1 colon) was over 100 µM, the TGI (CAKI-1 renal) was over 100 µM and the TGI (UACC-62 melanoma) was over 100 µM. It also gave a TGI (NCI-H23 lung) of over 100 µM, a TGI (OVCAR-5 ovarian) of over 100 µM and a TGI (RXF-631 renal) of over 100 µM. It also gave a TGI (TK-10 renal) of over 100 µM, a TGI (IGROV1 ovarian) of over 100 µM and a TGI (NCI-H522 lung) of over 100 µM. The TGI (K-562 leukemia) was over 100 µM, the TGI (SN12C renal) was over 100 µM and the TGI (SF-295 CNS) was over 100 µM. The TGI (HT29 colon) was over 100 µM, the TGI (HCC-2998 colon) was over 100 µM and the TGI (OVCAR-4 ovarian) was over 100 µM. The TGI (SR leukemia) was over 100 µM, the TGI (SK-OV-3 ovarian) was over 100 µM and the TGI (SNB-19 CNS) was over 100 µM. For the same molecule, the TGI (XF 498 CNS) was over 100 µM, the TGI (A549 NSCLC) was over 100 µM and the TGI (MALME-3M melanoma) was over 100 µM. It also gave a TGI (EKVX NSCLC) of over 100 µM, a TGI (SK-MEL-28 melanoma) of over 100 µM and a TGI (MOLT-4 leukemia) of over 100 µM. It also gave a TGI (U251 CNS) of over 100 µM, a TGI (OVCAR-8 ovarian) of over 100 µM and a TGI (SK-MEL-2 melanoma) of over 100 µM. For the same molecule, the TGI (SNB-78 CNS) was over 100 µM, the TGI (M14 melanoma) was over 100 µM and the TGI (OVCAR-3 ovarian) was over 100 µM. For the same molecule, the TGI (SF-268 CNS) was over 100 µM, the TGI (RXF 393 renal) was over 100 µM and the TGI (HOP-92 NSCLC) was over 100 µM. It also gave a TGI (SW-620 colon) of over 100 µM and a TGI (ACHN renal) of over 100 µM.
Work on `Cc1ccc(NC(=O)c2c(C)nc(=O)n3c2N(/N=C/c2ccc(Cl)cc2)CC3)cc1` yielded a TGI (A498 renal) of 33.1 µM, a TGI (LXFL 529 NSCLC) of 31.6 µM and a TGI (DMS 114 small cell lung) of 55.1 µM. The TGI (M19-MEL melanoma) was 37 µM, the TGI (786-0 renal) was 33.8 µM and the TGI (CCRF-CEM leukemia) was over 100 µM. The TGI (SF-539 CNS) was 25 µM, the TGI (UO-31 renal) was 24 µM and the TGI (SNB-75 CNS) was 34.1 µM. The TGI (COLO 205 colon) was 54.8 µM, the TGI (DLD-1 colon) was 30.7 µM and the TGI (CAKI-1 renal) was 32.1 µM. The TGI (UACC-62 melanoma) was 28.2 µM, the TGI (NCI-H23 lung) was 29.2 µM and the TGI (RXF-631 renal) was 30.6 µM. The TGI (HL-60(TB) leukemia) was 48.7 µM, the TGI (HOP-62 NSCLC) was 33.1 µM and the TGI (IGROV1 ovarian) was 36.2 µM. It also gave a TGI (NCI-H522 lung) of 24 µM, a TGI (K-562 leukemia) of over 100 µM and a TGI (HCT-116 colon) of 26.4 µM. It also gave a TGI (SN12C renal) of 30.6 µM, a TGI (HCC-2998 colon) of 32.3 µM and a TGI (NCI-H226 lung) of 33.3 µM. For the same molecule, the TGI (OVCAR-4 ovarian) was 32 µM, the TGI (SR leukemia) was over 100 µM and the TGI (SK-OV-3 ovarian) was 39.7 µM. For the same molecule, the TGI (XF 498 CNS) was 34.1 µM, the TGI (MALME-3M melanoma) was 40.1 µM and the TGI (SK-MEL-28 melanoma) was 31.2 µM. The TGI (MOLT-4 leukemia) was 82 µM, the TGI (DMS 273 small cell lung) was 43.9 µM and the TGI (SK-MEL-2 melanoma) was 34.7 µM. The TGI (SNB-78 CNS) was 40.5 µM, the TGI (M14 melanoma) was 31.5 µM and the TGI (SF-268 CNS) was 29.2 µM. It also gave a TGI (HOP-92 NSCLC) of 36.6 µM and a TGI (ACHN renal) of 33.8 µM.
Molecule `O=NN(CCCl)C(=O)NC1CCSc2ccccc21` (configuration not stated) has a TGI (A498 renal) of over 100 µM, a TGI (KM12 colon) of over 100 µM and a TGI (HCT-15 colon) of over 100 µM. The TGI (DMS 114 small cell lung) was over 100 µM, the TGI (M19-MEL melanoma) was over 100 µM and the TGI (SK-MEL-5 melanoma) was over 100 µM. It also gave a TGI (KM20L2 colon) of over 100 µM, a TGI (CCRF-CEM leukemia) of over 100 µM and a TGI (SF-539 CNS) of over 74.5 µM. For the same molecule, the TGI (UO-31 renal) was over 100 µM, the TGI (SNB-75 CNS) was over 100 µM and the TGI (COLO 205 colon) was over 100 µM. The TGI (DLD-1 colon) was over 100 µM, the TGI (CAKI-1 renal) was over 100 µM and the TGI (UACC-62 melanoma) was over 100 µM. The TGI (SN12K1 renal) was over 100 µM, the TGI (NCI-H23 lung) was over 100 µM and the TGI (OVCAR-5 ovarian) was over 100 µM. It also gave a TGI (MCF7 breast) of over 100 µM, a TGI (HOP-18 NSCLC) of over 100 µM and a TGI (HL-60(TB) leukemia) of 48.7 µM. For the same molecule, the TGI (HOP-62 NSCLC) was over 100 µM, the TGI (NCI-H460 lung) was over 100 µM and the TGI (IGROV1 ovarian) was over 100 µM. It also gave a TGI (P388 leukemia) of 82.6 µM, a TGI (NCI/ADR-RES ovarian) of over 100 µM and a TGI (NCI-H522 lung) of over 100 µM. For the same molecule, the TGI (K-562 leukemia) was over 100 µM, the TGI (HCT-116 colon) was over 100 µM and the TGI (P388/ADR leukemia) was over 100 µM. It also gave a TGI (SN12C renal) of over 100 µM, a TGI (SF-295 CNS) of over 100 µM and a TGI (HT29 colon) of over 100 µM. For the same molecule, the TGI (HCC-2998 colon) was over 100 µM, the TGI (NCI-H226 lung) was over 100 µM and the TGI (OVCAR-4 ovarian) was over 100 µM. For the same molecule, the TGI (SK-OV-3 ovarian) was over 100 µM, the TGI (SNB-19 CNS) was over 100 µM and the TGI (XF 498 CNS) was over 100 µM. For the same molecule, the TGI (A549 NSCLC) was over 100 µM, the TGI (MALME-3M melanoma) was over 100 µM and the TGI (EKVX NSCLC) was 94.1 µM. The TGI (LOX IMVI melanoma) was over 100 µM, the TGI (SK-MEL-28 melanoma) was over 94.1 µM and the TGI (MOLT-4 leukemia) was 99.1 µM. The TGI (U251 CNS) was over 100 µM, the TGI (DMS 273 small cell lung) was over 100 µM and the TGI (OVCAR-8 ovarian) was over 100 µM. For the same molecule, the TGI (UACC-257 melanoma) was over 100 µM, the TGI (SK-MEL-2 melanoma) was over 100 µM and the TGI (SNB-78 CNS) was over 100 µM. The TGI (OVCAR-3 ovarian) was over 100 µM, the TGI (RPMI-8226 leukemia) was over 100 µM and the TGI (SF-268 CNS) was over 100 µM. It also gave a TGI (RXF 393 renal) of over 100 µM, a TGI (HOP-92 NSCLC) of over 100 µM and a TGI (SW-620 colon) of over 100 µM.
